Key:
HPAF-II = test: Cell viability (CellTiter-Fluor), HPAF-II; format: cell-based; conditions: Homo sapiens, 24-72 hrs
Method: (§1) Count and dispense 2,000-10,000 cells per well (100 μL volume) in black 96-well tissue culture microplate and let cells adhere overnight. Add compound dissolved in 100% DMSO to each well as needed and incubate cells in standard culture conditions for 24-72 hrs. Final DMSO concentration in each well should be 0.1-0.5%. At the desired time point, gently aspirate compound containing media and replace with PBS to wash. Repeat wash step for 2 total washes. Remove PBS and add 100 μL CellTiter-Fluor reagent (Promega) reagent to each well. Seal plate and incubate 1 hr at room temperature with orbital shaking. Analyze fluorescence using plate reader to quantify viable cells compared with vehicle (DMSO) control.

MCF7 = test: Cell viability (CellTiter-Fluor), MCF7; format: cell-based; conditions: Homo sapiens, MCF7, 24-72 hrs
Method: as §1

KRAS G12D = test: In vitro transcription-translation (IVTT) reporter assay, KRAS G12D test sequence; format: biochemical; conditions: HeLa S3 lysate, sfGFP/mCherry ratio, 2 hrs at 30° C.
Method in brief: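 Compounds, half-log titrated 30 μM-0.1 μM in DMSO, were mixed with HeLa S3 lysate master mix and plasmid DNA, then incubated 2 h at 30 °C before PBS quench. Each construct fuses the CCND1, KRAS G12D, MCL-1 or BCL-2 sequence between 3×FLAG and sfGFP, downstream of mCherry-P2A.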

KLE = test: Cell viability (CellTiter-Fluor), KLE; format: cell-based; conditions: Homo sapiens, 24-72 hrs
Method: as §1

MYC = test: In vitro transcription-translation (IVTT) reporter assay, MYC test sequence; format: biochemical; conditions: HeLa S3 lysate, sfGFP/mCherry ratio, 2 hrs at 30° C.
Method in brief: (§2)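 Coupled transcription-translation in HeLa S3 lysate with reporter plasmids encoding mCherry-P2A-3×FLAG-TEST-sfGFP behind an EMCV IRES. Compounds were half-log titrated (30 μM-0.1 μM in DMSO dilution plate) into master mix, then DNA was added. Reactions ran 2 hrs at 30° C, were PBS-quenched and read for fluorescence.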

LS411N = test: Cell viability (CellTiter-Fluor), LS411N; format: cell-based; conditions: Homo sapiens, LS-411N, 24-72 hrs
Method: as §1

HEK 293T = test: Cell viability (CellTiter-Fluor), HEK 293T; format: cell-based; conditions: Homo sapiens, 24-72 hrs
Method: as §1

CCND1 = test: In vitro transcription-translation (IVTT) reporter assay, CCND1 test sequence; format: biochemical; conditions: HeLa S3 lysate, sfGFP/mCherry ratio, 2 hrs at 30° C.
From the text: (§3) All reporter constructs have been cloned into the pT7CFE1-CHis plasmid (ThermoFisher #88860) using Gibson assembly procedures (NEB #E2611L). The parental pT7CFE1-CHis plasmid contains an EMCV IRES at the 5′UTR for translation initiation, a multiple-cloning site (MCS) for gene insertion, an optional C-terminal His-epitope tag, and polyA sequence in the 3′UTR to regulate mRNA stability. All reporters are designed to be inserted at the MCS to include a red fluorescent protein (mCherry), P2A self-cleaving peptide which releases the preceding mCherry protein product, and a fusion open reading frame containing a 3×FLAG epitope, a peptide sequence of interest (TEST), and green fluorescent protein (sfGFP).
(§4) Construct Plasmid Preparation: All plasmids are isolated from MACH1 cells (ThermoFisher) grown overnight in ampicillin-containing luria broth, and purified using ZymoPure Express Plasmid Midiprep Kit (Zymo Research). Constructs are sequenced verified and diluted to a working concentration of 110 ng/μL.
(§5) HeLa S3 Lysate Preparation: HeLa S3 cell pellets are acquired from Ipracell/Ipratech (Belgium) and shipped as 4 mL frozen cell pellets on dry ice for storage at −80° C. until use. The procedure for lysate preparation is as follows. Prepare 1× Lysis Buffer, cold and stored on ice:
(§6) Each preparation takes 8 cell pellets (4 ml packed volume each, approximately 1.0×10^9 cells per pellet). Thaw cell pellets from −80° C. on ice for 90 mins. Lay pellets horizontally on top of the ice and rotate every 30 mins to ensure even thawing. Once thawed, add 4 mL of cold lysis buffer to each pellet, and using a serological pipet, gently pipet up and down to break up clumps. Incubate resuspended cells in ice for an additional 30 mins (plunged into ice). During 30 min incubation, rinse and RNase-zap (Ambion) glass dounces (use loose pestle “A”), gently dry and place on ice until needed. Prepare RNase-free Eppendorf tubes for spinning and for batch storage. Add batch labels to 1.5-1.7 mL RNase-free microcentrifuge tubes (labeling scheme below). Each batch will have an extra 1.5-1.7 mL RNase-free microcentrifuge tube for 40 μL of lysate, label the top of this tube (labeling scheme below). After 30 min incubation, transfer all 8 mL of cell pellet to dounce. Cell lysis is complete after douncing 100 times. Aliquot cell lysis into 1.5-1.7 mL temporary-microcentrifuge tubes. Place tubes in centrifuge with “fins” out, and spin at 1,200 xg for 5 mins. After the first spin use a 1 mL pipet to resuspend each tube and repeat spin. This acts as an additional lysis step, is more vigorous and increases lysate yield. During second spin get liquid N2 and a fresh conical tube on ice.
(§7) After spin is complete, transfer supernatant (lysate) from microcentrifuge tubes into the 50 mL conical tube and keep on ice. Repeat steps 10-14 for all other cell pellets until completed. Once all cell lysate has been transferred to the 50 mL conical tube pipet to mix so the solution is homogenous. Transfer 1 mL of lysate into batch-labeled microcentrifuge tubes and flash freeze in liquid nitrogen. Be sure to pipet up and down to mix throughout transfer step. Place all tubes in the […] for long-term storage.
(§8) In vitro transcription-translation assay setup: Each assay includes a master mix containing lysate and shared components, a 96-well plate containing compound titrations for testing, a 96-well DNA plate with reporter constructs to be tested, 96-well skirted PCR plates, and 96-well flat-bottom, black, fluorescent assay plates. […]

ALK = test: In vitro transcription-translation (IVTT) reporter assay, ALK test sequence; format: biochemical; conditions: HeLa S3 lysate, sfGFP/mCherry ratio, 2 hrs at 30° C.
Method in brief: as §2

NCI-H1915 = test: Cell viability (CellTiter-Fluor), NCI-H1915; format: cell-based; conditions: NCI-H1915, 24-72 hrs
Method: as §1

MCL-1 = test: In vitro transcription-translation (IVTT) reporter assay, MCL-1 test sequence; format: biochemical; conditions: HeLa S3 lysate, sfGFP/mCherry ratio, 2 hrs at 30° C.
From the text: as §3, §4, §5, §6, §7, §8

BCL-2 = test: In vitro transcription-translation (IVTT) reporter assay, BCL-2 test sequence; format: biochemical; conditions: HeLa S3 lysate, sfGFP/mCherry ratio, 2 hrs at 30° C.
From the text: as §3, §4, §5, §6, §7, §8

| IC50 (KRAS G12D) [µM] | IC50 (MYC) [µM] | IC50 (CCND1) [µM] | IC50 (MCL-1) [µM] | IC50 (BCL-2) [µM] | SMILES | further results |
| --- | --- | --- | --- | --- | --- | --- |
| < 10 | < 10 | < 10 |  |  | COc1ccc(C[C@H]2NC[C@H](O)[C@H]2OC(=O)Cc2cnccn2)cc1 [V187088, (2R,3S,4S)-4-hydroxy-2-[(4-methoxyphenyl)methyl]pyrrolidin-3-yl 2-(pyrazin-2-yl)acetate] | IC50 (ALK): < 10 µM |
|  | < 10 | < 10 | < 10 | < 10 | CC(=O)O[C@@H]1[C@@H](O)CN[C@@H]1Cc1ccc(-c2cn(C)nn2)cc1 [V187748] |  |
| < 10 | < 10 | < 10 |  |  | CC(=O)O[C@@H]1[C@@H](O)CN[C@@H]1Cc1ccc(-c2cn(Cc3ccccc3)nn2)cc1 [V187750] | IC50 (ALK): < 10 µM |
|  | < 10 | < 10 | < 10 | < 10 | CC(=O)O[C@@H]1[C@@H](O)CN[C@@H]1Cc1ccc(-c2cn(-c3cccnc3)nn2)cc1 [V187751] |  |
|  | < 10 | < 10 | < 10 | < 10 | CC(=O)O[C@@H]1[C@@H](O)CN[C@@H]1Cc1ccc(-c2cn(C3CCOCC3)nn2)cc1 [V187838] |  |
|  | < 10 | < 10 | < 10 | < 10 | CC(=O)O[C@@H]1[C@@H](O)CN[C@@H]1Cc1ccc(-c2cn(-c3ccc(Cl)cc3)nn2)cc1 [V187839] |  |
|  | < 10 | < 10 | < 10 | < 10 | CC(=O)O[C@@H]1[C@@H](O)CN[C@@H]1Cc1ccc(-c2cn(Cc3cn[nH]c3)nn2)cc1 [V187844] |  |
|  | < 10 | < 10 | < 10 | < 10 | CC(=O)O[C@@H]1[C@@H](O)CN[C@@H]1Cc1ccc(-c2nn[nH]c2Cl)cc1 [V187854] |  |
|  | < 10 | < 10 | < 10 | < 10 | CC(=O)O[C@@H]1[C@@H](O)CN[C@@H]1Cc1ccc(-c2nnn(C)c2Cl)cc1 [V187855] |  |
|  | < 10 | < 10 | < 10 | < 10 | CC(=O)O[C@@H]1[C@@H](O)CN[C@@H]1Cc1ccc(-c2nnn(Cc3ccccc3)c2Cl)cc1 [V187856] |  |
|  | < 10 | < 10 | < 10 |  | CC(=O)O[C@@H]1[C@@H](O)CN[C@@H]1Cc1ccc([N+](=O)[O-])cc1 [V188168, (2R,3S,4S)-4-hydroxy-2-[(4-nitrophenyl)methyl]pyrrolidin-3-yl acetate] |  |

Further lines, the molecule ahead of its results:

| SMILES | IC50 (KRAS G12D) [µM] | IC50 (MYC) [µM] | IC50 (CCND1) [µM] | IC50 (MCL-1) [µM] | IC50 (BCL-2) [µM] | further results |
| --- | --- | --- | --- | --- | --- | --- |
| COc1ccc(C[C@H]2NC[C@H](O)[C@H]2OC(=O)Cc2cnc[nH]2)cc1 [V0109, (2R,3S,4S)-4-hydroxy-2-[(4-methoxyphenyl)methyl]pyrrolidin-3-yl 2-(3H-imidazol-4-yl)acetate] | < 10 | < 10 | < 10 |  |  | IC50 (HPAF-II): 0.25 to 1 µM; IC50 (MCF7): 0.25 to 1 µM; IC50 (KLE): 0.25 to 1 µM; IC50 (LS411N): 0.25 to 1 µM; IC50 (HEK 293T): < 0.25 µM; IC50 (ALK): < 10 µM; IC50 (NCI-H1915): 0.25 to 1 µM |
| COc1ccc(C[C@H]2NC[C@H](O)[C@H]2OC(=O)CC(C)C)cc1 [V187035, (2R,3S,4S)-4-hydroxy-2-[(4-methoxyphenyl)methyl]pyrrolidin-3-yl 3-methylbutanoate] | < 10 | < 10 | < 10 | < 10 |  | IC50 (ALK): < 10 µM |
| COc1ccc(C[C@H]2NC[C@H](O)[C@H]2OC(=O)Cc2ccc(Cl)cc2)cc1 [V187055, (2R,3S,4S)-4-hydroxy-2-[(4-methoxyphenyl)methyl]pyrrolidin-3-yl 2-(4-chlorophenyl)acetate; trifluoroacetic acid] | < 10 | < 10 | < 10 | < 10 |  |  |
| COc1ccc(C[C@H]2NC[C@H](O)[C@H]2OC(=O)Cc2cc(Br)cs2)cc1 [V187070, (2R,3S,4S)-4-hydroxy-2-[(4-methoxyphenyl)methyl]pyrrolidin-3-yl 2-(4-bromothiophen-2-yl)acetate] | < 10 | < 10 | < 10 | < 10 |  |  |
| COc1ccc(C[C@H]2NC[C@H](O)[C@H]2OC(=O)CCNC(C)C)cc1 [V187155, (2R,3S,4S)-4-hydroxy-2-[(4-methoxyphenyl)methyl]pyrrolidin-3-yl 3-(isopropylamino)propanoate; trifluoroacetic acid] | > 30 | > 30 | < 10 |  |  | IC50 (ALK): 10 to 20 µM |
| COc1ccc(C[C@H]2NC[C@H](O)[C@H]2OC(=O)CC(F)(F)F)cc1 [V187162, (2R,3S,4S)-4-hydroxy-2-[(4-methoxyphenyl)methyl]pyrrolidin-3-yl 3,3,3-trifluoropropanoate; trifluoroacetic acid] | < 10 | < 10 | < 10 |  |  | IC50 (ALK): < 10 µM |
| COc1ccc(C[C@H]2NC[C@H](O)[C@H]2OC(=O)CNC2CC(F)(F)C2)cc1 [V187172] | < 10 | < 10 | < 10 |  |  | IC50 (ALK): < 10 µM |
| COc1ccc(C[C@H]2NC[C@H](O)[C@H]2OC(C)=O)cc1Br [V187263] |  | > 30 | 20 to 30 | 20 to 30 | 20 to 30 |  |
| COc1ccc(C[C@H]2NC[C@H](O)[C@H]2OC(C)=O)cc1F [V187569] |  | < 10 | < 10 | < 10 |  |  |
| CC(=O)O[C@@H]1[C@@H](O)CN[C@@H]1Cc1ccc(-c2cn(-c3ccc(C(F)(F)F)cc3)nn2)cc1 [V187840] |  | < 10 | < 10 | < 10 | < 10 |  |
| COc1ccc(C[C@H]2NC[C@H](O)[C@H]2OC(C)=O)cc1I [V188005] |  | > 30 | > 30 | > 30 | > 30 |  |
| COc1ccc(C[C@H]2NC[C@H](O)[C@H]2OC(C)=O)cc1C#N [V188045] |  | > 30 | > 30 | > 30 |  |  |
| COc1ccc(C[C@H]2NC[C@H](O)[C@H]2OC(C)=O)cc1Cl [V188046] |  | < 10 | < 10 | < 10 |  |  |
| COc1ccc(C[C@H]2NC[C@](C)(O)[C@H]2OC(C)=O)cc1 [V188182, (2R,3S,4S)-4-hydroxy-2-[(4-methoxyphenyl)methyl]-4-methylpyrrolidin-3-yl acetate] |  | > 30 |  | > 30 |  |  |

Reference: US20250091989A1, “SMALL MOLECULE PROTEIN SYNTHESIS MODULATORS” (Interdict Bio, Inc., priority 2023, published 2025)
